Test results taken from patent publication US20160030631A1, “Injectable Biodegradable Bone Matrix for Multiple Myeloma Lesion Augmentation and Osteoporosis” (THE UNIVERSITY OF TOLEDO, priority 2013, published 2016).
Where a SMILES comes first, the peptide text is derived from it. Bridges are numbered along the chain shown (N, C = ends). The star is where a group is joined. Cbz = O=C(OCc1ccccc1)*

Tests used:
[1] = tested on: pre-osteoclast RAW 264.7 cell culture; test: TRAP+ cell staining for osteoclast activation with WP9QY-loaded cement; format: cell-based; settings: WP9QY released from MWCNT/CPC or CPC; 5 days; TNFalpha stimulated; FIG. 6
From the text: The MWCNT/CPC or CPC alone were loaded with WP9QY ([…], [SEQ ID NO: 1]), which is a peptide compound designed to compete ligand binding of RANK and to inhibit osteoclastogensis. The WP9QY peptide has a sequence of H-[…]OH [SEQ ID NO: 1], and was developed based on a structural analysis of the ligand binding site on TNF receptor 1 and RANK to inhibit osteoclast-activating. This cyclic peptide mimics the most critical tumor necrosis factor (TNF) recognition loop on TNF receptor 1, and prevents interaction of TNF with its receptor. The peptide was added directly to the cement paste to form the bone filler composition. Briefly, 100 μL of 1 mg/mL WP9QY was added into 0.5 mL DI water when mixing with 1 g of cement powder.
The cement pellet was washed with ethanol and left in a pre-osteoclast RAW 264.7 cell culture treated to trigger cell differentiation. To measure anti-osteoclast maturation of WP9QY released from the cement, the culture was stained for TRAP+ (osteoclast-like) cells after 5 days. TRAP+ cells are a marker for active osteoclasts after stimulated by the cytokine TNFalpha. The results, shown in FIG. 6, indicate that both composites can carry and release WP9QY.

RAW 264.7 culture = test: Anti-osteoclastogenesis: cathespin K expression by real-time PCR; format: cell-based; settings: MG132 released from cement; 5-day TNFalpha treatment
Procedure: The anti-osteoclastogenesis of MG132-loaded cement was tested after a 5-day treatment of TNFalpha in RAW 264.7 culture. In this case, expression of the marker gene cathespin K was measured by real-time PCR.

Molecule | osteoclast activation (TRAP+ cells) [1] | osteoclast maturation (cathespin K expression) (RAW 264.7 culture)
H-Tyr-Cys-Trp-Ser-Gln-Tyr-Leu-Cys-Tyr-OH (H-YCWSQYLCY-OH; disulfide 2-8 (inferred)) [WP9QY] | osteoclast activation was inhibited | 
CC(C)C[C@@H](C=O)NC(=O)[C@H](CC(C)C)NC(=O)[C@H](CC(C)C)NC(=O)OCc1ccccc1 [MG132] (Cbz-Leu-Leu-Leu-aldehyde) |  | osteoclast maturation can be inhibited
